Read-outs that look alike come from different tables or passages of the source.
Key:
[1] = tested on: mice transplanted with myeloma cells ARH-77; assay: Bone resorption inhibition test in multiple myeloma model animals (urinary deoxypyridinoline); assay type: in vivo, C.B-17/lcr-scid Jcl mice; conditions: 0.1 mg/kg intravenous once; urine on day 4 after administration; mice with paralysis in hind limbs; vs solvent group
Protocol: On the next day, 10^6 cells/mouse of myeloma cells ARH-77 were transplanted into the left cardiac ventricle of each animal under anesthesia with pentobarbital. […] On the day 4 after the administration, a physiological saline load (30 ml/kg po) was burdened to these mice and the urine was collected after 6 hours. Since the mice suffering from paralysis in hind limbs could hardly urinate, such an animal was subjected to abdominal section and the urine was directly collected from the bladder. Normal animals (sham-operated group), into the left cardiac ventricle of which PBS (0.1 ml/animal) was injected as a substitute for the myeloma cells, were treated in the same manner. The urinary deoxypyridinoline (Dpyr) level was measured by using a [sequence]-D kit (Amersham) and corrected with the urinary creatinine level.

[2] = tested on: patients with multiple myeloma; conditions: 30 mg/day oral; cited from earlier work
murine model of myeloma = conditions: cited from earlier work
patients = conditions: intravenous 90 mg/4 weeks, cited from earlier work
[3] = tested on: patient with multiple myeloma; assay: Clinical test 1 (multiple myeloma and bone lesions, one patient); assay type: in vivo, human; conditions: for M protein (IgD): blood
[4] = tested on: patients with multiple myeloma; conditions: for systemic bone salt mass, change ratio to the data before the administration: 5 patients
[5] = tested on: mice transplanted with myeloma cells ARH-77; assay: Lumbar bone mineral density decrease test in multiple myeloma model animals; assay type: in vivo
Protocol: Similar to Example 1, mice suffering from paralysis in hind limbs were selected 3 weeks after the transplantation of myeloma cells. Then an aqueous solution of the compound A monohydrate (3 mg/kg) (compound A group) and the solvent alone (solvent group) were orally administered once a day for 6 days repeatedly. On the next day of the completion of the administration, a 10% formalin solution was refluxed from the left cardiac ventricle under anesthesia with pentobarbital and the lumber vertebrae was taken out. The bone mineral density in the bone tissue was measured by the DXA method. As Example 1, the normal mice (sham-operated group) were also subjected to the measurement of the bone mineral density.
Two weeks after the transplantation of the myeloma cells, the compound A was orally administered for 14 days in doses of 0.03, 0.3 and 3 mg/kg. Then the bone mineral density was measured as in the above (1) but selecting animals suffering from paralysis in hind limbs during the administration period.

[6] = tested on: human myeloma cells ARH-77; assay: Myeloma cell proliferation inhibitory test; assay type: cell-based
Protocol: A 5×10^4 cells/ml cell dilution of human myeloma cells […], which had been incubated in a culture flask, was prepared by using an RPMI1640 medium (containing 10% of EBS), pipetted in 1 ml portions into a 24-well plate and then incubated in a CO2 incubator at 37° C. After 6 hours, 100 μl portions of the aqueous solution of the compound A were added to give final concentrations of 0.3 to 1000 μM (three-fold serial, duplicate samples). After incubating in the CO2 incubator at 37° C. for 4 days, the viable cells were counted with the use of a Cell Counting Kit (Dojin Kagaku). By referring the value of the control prepared by adding PBS as to the cell proliferation inhibitory ratio of […], the inhibitory ratios were calculated.

[7] = 3 mg oral once a day, after 8 weeks
[8] = 6 mg oral once a day, after 24 weeks

For `O=P(O)(O)C(O)(Cc1cccnc1)P(=O)(O)O` [risedronate], the “inhibition of the increase in urinary Dpyr level (bone resorption marker)” value (shortened to “inhibition of the increase”) [1] is listed as “no significant inhibition”, the bone mineral density [2] is listed as “elevated bone mineral density” and the bone resorption [2] is listed as “suppressed bone resorption”. The bone destruction (murine model of myeloma) was “clear reduction in bone destruction” and the “effect on tumor growth / tumor burden” value (murine model of myeloma) was “no effect on tumor burden”.
For `NCCC(O)(P(=O)(O)O)P(=O)(O)O` [pamidronate], the “inhibition of the increase” value [1] is listed as “no significant inhibition”, the “Dpyr level relative to level before the administration” value (patients; after 4 weeks) is listed as “exceeded 80%” and the “Dpyr level relative to level before the administration” value (patients; week 2) is listed as “about 60%”. For the same compound, the “cytotoxic effect within the bone marrow” value (murine model of myeloma) was “evidence of a cytotoxic effect within the bone marrow” and the “effect on tumor growth / tumor burden” value (murine model of myeloma) was “no effect on tumor growth was demonstrated”.
In the case of `O=P(O)(O)C(O)(Cc1cnc2ccccn12)P(=O)(O)O` [compound A, 1-hydroxy-2-(imidazo[1,2-a]pyridin-3-yl)ethane-1,1-bisphosphonic acid], the “inhibition of the increase” value [1] is reported as “significantly inhibited”, the “Dpyr level relative to level before the administration” value [3, 7] is reported as “about 60%” and the “M protein (IgD)” value ([3]; 3 mg oral once a day, after 2 weeks) is reported as 11.6 mg/dL. The “M protein (IgD)” value ([3]; 3 mg oral once a day, after 4 weeks) was 9.8 mg/dL, the “M protein (IgD)” value [3, 7] was 7.7 mg/dL and the “M protein (IgD)” value ([3]; 3 mg oral once a day, after 20 weeks) was 5.9 mg/dL. For the same compound, the “M protein (IgD)” value ([3]; before administration) was 25.8 mg/dL, the “side effects related to the compound” value ([4]; 6 mg oral once a day for 24 weeks, 6 patients) was “No side effect” and the “systemic bone salt mass, change ratio to the data before the administration” value ([4]; 6 mg oral once a day, after 12 weeks) was 0.61%. The “narcotic score (analgesic type × administration frequency)” value [4, 8] was 0.60±1.342, the “systemic bone salt mass, change ratio to the data before the administration” value [4, 8] was 1.18% and the “EORTC questionnaire on QOL” value ([4]; 6 mg oral once a day, before vs after 24 weeks) was “improvement was observed in pain, fatigue, shortness of breath, inappetence, constipation, economic conditions”. For the same compound, the “bone lesions in bone radiographs” value ([4]; 6 mg oral once a day, one of the patients) was “obvious amelioration in bone lesions”, the “narcotic score (analgesic type × administration frequency)” value ([4]; before the administration) was 1.67±3.615 and the “bone mineral density of lumbar vertebrae” value ([5]; 3 mg/kg oral once a day for 6 days, DXA method, mice with paralysis in hind limbs) was 24.7 ± 0.9 mg/cm^2. The “lumbar bone mineral density compared with solvent group” value ([5]; oral administration (6 days 3 mg/kg; 14 days 0.03, 0.3, 3 mg/kg)) was “higher bone mineral density than the solvent group”, the “cell proliferation inhibitory ratio” value ([6]; 100 μM, 4 days incubation, ARH-77) was 84.2% and the “inhibition of ARH-77 cell proliferation” value ([6]; 0.3 to 1000 μM, 4 days) was “dose-dependent manner”.
